One data set relates to SW480 cells. In words: Cell viability, sulforhodamine B (SRB) assay. The data set is classed as cell-based. Conditions: Homo sapiens. The method, then: (§1) SW480 (colon adenocarcinoma) and SW620 (derived metastatic) malignant cell lines, and the non-malignant lines HaCaT (human keratinocytes) and CHO-K1 (Chinese Hamster Ovary), were obtained from the European Collection of Authenticated Cell Cultures (ECACC, Porton Down, Salisbury, UK). The cells were maintained in Dulbecco’s Modified Eagle’s Medium (DMEM), supplemented with 10% equine serum previously inactivated at 56 °C, 1% penicillin/streptomycin, and 1% non-essential amino acids, and incubated at 37 °C in an atmosphere with 5% CO2. To carry out the experiments, the serum was diluted to 3% and additionally supplemented with […] insulin, […] transferrin, and 5 ng/mL selenium. Cells were used for experimentation when they reached 80–90% confluence, using a 1X trypsin enzymatic disintegration method. To avoid contamination by Mycoplasma spp., cell cultures were periodically analyzed by polymerase chain reaction (PCR).
(§2) Cell viability was evaluated with a sulforhodamine B (SRB) assay. This technique provides an index of protein contents in living and adherent cells, whose optical density can be related to cell concentration. Initially, 20,000 cells were seeded per well in 96-well culture plates. An initial adherence period of 24 h was performed at 37 °C, 5% CO2, and after this, the medium was replaced by another that contained the hybrid compounds in different concentrations. Then, the cells were left incubating for 24 and 48 h under the same conditions previously described. After the respective incubation times, the cells were fixed with trichloroacetic acid (50% v/v) for 1 h at 4 °C and stained with 0.4% (p/v) of SRB. Subsequently, washings with 1% acetic acid were carried out to eliminate possible nonspecific bindings, and after solubilization with 10 mM Tris-base, the absorbance was read at 492 nm in a microplate reader (Mindray MR-96A). All the experiments were carried out in triplicate.
Background: The SRB assay estimates cell density from bound dye.

In the next data set the test system is HaCaT cells. Briefly: Cell viability, sulforhodamine B (SRB) assay, non-malignant cells. The class given is cell-based. Conditions: Homo sapiens. The procedure: as §1, §2
Data set [1] has as its system SW620 cells. In words: Mitochondrial membrane potential (DiOC6/PI, flow cytometry). The class given is cell-based, human. Conditions: SW620, treated with IC50, 48 h. The procedure: The fluorescent dyes PI and DIOC6 (3,3’-dihexyloxacarbocyanine iodide) were used to observe the depolarization of the mitochondrial membrane as well as possible cell membrane damage. For this method, 250,000 cells/well were initially seeded in 6-well culture plates during a 24 h adherence period at 37 °C in a 5% CO2 atmosphere. […] After treatment, cells were obtained by mechanical disaggregation, stained with DiOC6 and PI, and incubated at room temperature for 30 min in the dark. Ten thousand events were analyzed by flow cytometry with excitation at 488 nm and emission detection with green (530/15 nm) and red (610/20 nm) filters.
In general terms: A flow cytometer gives signals particle by particle.

Data set [2] concerns SW620 cells. In words: Cell death induction (Annexin-V/PI, flow cytometry). The data set is classed as cell-based, human. The note with it: SW620, treated with IC50, 48 h. The method, then:
For this method, 250,000 cells/well were initially seeded in 6-well culture plates during a 24 h adherence period at 37 °C in a 5% CO2 atmosphere. […] After treatment, cells were obtained by mechanical disaggregation, resuspended in a solution with Annexin-V-FLUOS and PI, and incubated for 20 min in the dark before flow cytometry analysis.

In data set [3] the test system is SW620 cells. In words: Cell cycle analysis (PI, flow cytometry). The class given is cell-based, human. Conditions: SW620, treated with IC50 value, 48 h. The method, then: The method used for the recognition of cell cycle phases (G0/G1, S, G2/M) was based on staining with a fluorescent dye (propidium iodide—PI), as a direct relationship between fluorescence intensity and DNA content can be established. For this method, 250,000 cells/well were initially seeded in 6-well culture plates with an adherence period of 24 h at 37 °C in a 5% CO2 atmosphere. […] After treatment, cells were obtained by mechanical disaggregation, and the cell pellet was centrifuged and washed with a versene buffer. The cell pellet was fixed with 1.8 mL of cold 70% ethanol and kept at 4 °C overnight. Subsequently, two washes with a versene buffer were performed, and the pellet was resuspended in 300 µL of PBS containing 0.25 mg/mL of RNAsa and 0.1 mg/mL of PI. After a 30 min period of dark incubation, the fluorescence of 10,000 cells was analyzed using a FACS Canto II flow cytometer. The PI signal was analyzed with excitation at 488 nm using a sapphire laser, and fluorescence was detected at 610 nm. The data analysis was performed with FlowJo 10.8.1 software.

Data set [4] has as its system SW620 cells. Briefly: Antiproliferative activity (SRB, 0-8 days). The note with it: for viability at 2.5 µM / viability at 40 µM: Homo sapiens, read-out: Cell Viability (%) ± SE; for viability at 2.5 µM: SW620, 2.5 µM; for viability at 40 µM: SW620, 40 µM. The class given is cell-based, human. The procedure: For this experiment, the same colorimetric method (SRB) from the evaluation of cell viability was used, although with some modifications. Initially, 2500 cells per well were seeded in 96-well culture plates, and a 24 h adherence period was performed at 37 °C in a 5% CO2 atmosphere. […] For this assay, incubation periods of 0, 2, 4, 6, and 8 days were used, and the fixation, staining, and reading conditions were the same as those previously described for the cytotoxicity assay.

In a further data set the test system is CHO-K1 cells. Briefly: Cell viability, sulforhodamine B (SRB) assay, non-malignant cells. The data set is classed as cell-based, Chinese Hamster. The note with it: Cricetulus griseus. The procedure:
as §1, §2

The subject of data set [5] is SW620 cells. In words: Cell viability, sulforhodamine B (SRB) assay. The data set is classed as cell-based, human. The procedure: as §1, §2
Data set [6] has as its system caspase 3, caspase 7, caspase 8 and p53 in SW620 cells. Briefly: Apoptotic biomarkers (ELISA). The class given is cell-based, human. Conditions: SW620, treated with IC50, 48 h, vs control. The procedure: To provide an approach to the possible molecular mechanisms through which the hybrid compounds induce an effect on the cell lines, different proteins related to the process of death by apoptosis were determined. For this method, 1,000,000 cells were initially seeded per Petri dish, with an adherence period of 24 h at 37 °C in a 5% CO2 atmosphere. […] Later, the consumed medium was discarded, and after the addition of the versene buffer, the cells were obtained by mechanical disaggregation. The cells were then lysed with a cell lysis buffer and centrifuged to obtain the supernatant, which was used to determine the biomarkers of interest by enzyme-linked immunosorbent assays. These ELISA kits were provided by Elabscience Biotechnology Co., Houston, TX, USA [26].

Data set [7] deals with HT29 colorectal adenocarcinoma cells. More on the design: method as in PMID 33652694. Conditions: cited from earlier work.
Another data set has as its system metastatic SW620. Further details: method as in PMID 33652694. Conditions: cited from earlier work.
The mark [8] stands for this setting: SW-620, 48 h, 2 days after plating.
Where [9] appears, read: SW-620, 96 h, 4 days after plating.
[10] abbreviates: SW-620, 144 h, 6 days after plating.
Setting [11] is: SW-620, 192 h, 8 days after plating.

The text below walks through data of article PMC10144058, “New Hybrid Scaffolds Based on 5-FU/Curcumin: Synthesis, Cytotoxic, Antiproliferative and Pro-Apoptotic Effect” (Pharmaceutics, 2023).

Like-named read-outs stand apart in the source and are kept apart here.

For the compound `COc1cc(/C=C/C(=O)c2ccc(OCCCCCCn3cc(Cn4cc(F)c(=O)[nH]c4=O)nn3)cc2)ccc1O` [Compound 6e, (E)-5-fluoro-1-((1-(6-(4-(3-(4-hydroxy-3-methoxyphenyl)acryloyl)phenoxy)hexyl)-1H-1,2,3-triazol-4-yl)methyl)pyrimidine-2,4(1H,3H)-dione], the IC50 in the data set on SW480 cells (SW480, 24 h) was 38.8 ± 5.46 µM; in the data set on SW480 cells (SW480, 48 h) it was 18.2 ± 0.88 µM; in the data set on HaCaT cells (24 h), 76.9 ± 5.87 µM; in the data set on HaCaT cells (48 h), 19.7 ± 1.99 µM; in the data set on CHO-K1 cells (CHO-K1, 24 h), 33.8 ± 2.2 µM; in the data set on CHO-K1 cells (CHO-K1, 48 h), 34.5 ± 1.37 µM. Further, the IC50 is 14.5 ± 1.31 µM in the data set with SW620 cells [5] (48 h); above 100 µM in the data set with SW620 cells [5] (Homo sapiens, SW-620, 24 h, 24 h); 19.5 µM in the data set on SW620 cells [5] (Homo sapiens, SW-620, 48 h, 48 h). Besides, the “Dioc6 High population (live cells with high membrane polarization)” value with SW620 cells [1] is reported as 96%. Besides, the “Dioc6 Low population (cells that lose membrane polarization)” value with SW620 cells [1] was determined as 0%. The “PI+ population (membrane damage or dead cells)” value with SW620 cells [1] was found to be 4.05%. Further, the “changes in the mitochondrial membrane potential” value with SW620 cells [1] is reported as “do not induce significant changes”. The “Annexin V/PI quadrant Q4 (viable cells)” value with SW620 cells [2] was 84.7%. In the data set on SW620 cells [3], the “Cell cycle distribution, G0/G1” value is recorded as 20.6%. Further, in the data set on SW620 cells [3], the “Cell cycle distribution, G2/M” value turned out to be 8.8%. Further, the “Cell cycle distribution, S Phase” value in the data set with SW620 cells [3] was found to be 24.5%. Moreover, the viability at 2.5 µM with SW620 cells [4] (setting [8]) worked out at 95.6 ± 4.08%; in the data set with SW620 cells [4] (setting [9]) it was 60.65 ± 0.46%; in the data set on SW620 cells [4] (setting [10]) it was 56.5 ± 2.09%; with SW620 cells [4] (setting [11]), 48.9 ± 3.46%. Also, the viability at 40 µM in the data set with SW620 cells [4] (setting [8]) was determined as 8.77 ± 1.85%; with SW620 cells [4] (setting [9]), 0%; in the data set on SW620 cells [4] (setting [10]) it was 0%; with SW620 cells [4] (setting [11]), 0%. Moreover, in the data set on SW620 cells [4] (SW620, from 20 µM, day 2), the “inhibition percentages (decrease in cell viability)” value is reported as “higher than 30%”. In addition, the “levels of executioner caspases 3 and 7” value in data set [6] was “Significantly increased levels”.
`COc1cccc(/C=C2\CCC/C(=C\c3cccc(OC)c3OC)C2=O)c1OC` [DMCH, (2E,6E)-2,6-Bis(2,3-Dimethoxybenzylidine) Cyclohexanone]: the “increase of the sub-G0/G1 population in the cell cycle” value (in data set [7]; with metastatic SW620) was “more than 70%” each time.

Usually IC50 stands for the concentration that gives 50% inhibition. In general, viability refers to a per cent measure of how many cells are alive, often set against a control.
